Reference: US20230000870A1, “METHODS OF TREATING CANCER IN BIOMARKER-IDENTIFIED PATIENTS WITH INHIBITORS OF CYCLIN-DEPENDENT KINASE 7 (CDK7)” (Syros Pharmaceuticals, Inc., priority 2019, published 2023)

Tests used:
CDK2/Cyclin E1 complex = CDK2/Cyclin E1 complex (Homo sapiens, UniProt P24941); assay: CDK2 kinase inhibition assay (Caliper/LabChip EZ Reader); type: biochemical; details: CDK2/Cyclin E1 0.5 nM, ATP 2 mM, 35 min at 27° C.
Summary of the method: (§1)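 Incubation times were set for ~20% (±5%) peptide phosphorylation by uninhibited enzyme: CDK7 35 min, CDK2 35 min (0.5 nM complex, 2 μM 5-FAM-CDK7tide, 2 mM MgCl2), CDK12 3 hr (50 nM, 2 μM 5-FAM-CDK9tide, 2 mM MgCl2), CDK9 15 min (8 nM, 2 μM 5-FAM-CDK9tide, 10 mM MgCl2). Read-out on LabChip EZ Reader, 27° C.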

[1] = biological target: CDK7/Cyclin H/MAT1 complex (Homo sapiens, UniProt P50613); assay: CDK7 kinase inhibition assay (Caliper/LabChip EZ Reader); type: biochemical; details: CDK7/Cyclin H/MAT1 6 nM, ATP 2 mM, 35 min at 27° C.
Summary of the method: as §1

CDK9/Cyclin T1 complex = CDK9/Cyclin T1 complex (Homo sapiens, UniProt P50750); assay: CDK9 kinase inhibition assay (Caliper/LabChip EZ Reader); type: biochemical; details: CDK9/Cyclin T1 8 nM, ATP 2 mM, 15 min at 27° C.
Summary of the method: as §1

[2] = biological target: T1, CDK12 (aa686-1082)/Cyclin K complex (Homo sapiens, UniProt Q9NYV4); assay: CDK12 kinase inhibition assay (Caliper/LabChip EZ Reader); type: biochemical; details: CDK12 (aa686-1082)/Cyclin K 50 nM, ATP 2 mM, 3 hr at 27° C.
T1 construct: CDK12 (aa686-1082)/Cyclin K complex
Summary of the method: as §1

A673 cells = assay: Inhibition of proliferation of A673 cells (CyQUANT, 72 hour); type: cell-based, human; details: read-out: Inhibition of Proliferation of A673 Cells (calculated IC50)
Summary of the method: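 Read-out is CyQUANT after a 72 h proliferation period, following the kit protocol. Dilution series in 0.5-log steps over the stated 4 μM to […] range. Cells are A673 (human Ewing's sarcoma), grown in DMEM with 10% FBS and 1 mM sodium pyruvate at 37 °C under 5% CO2.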

T1 sequence (Q9NYV4 686-1082): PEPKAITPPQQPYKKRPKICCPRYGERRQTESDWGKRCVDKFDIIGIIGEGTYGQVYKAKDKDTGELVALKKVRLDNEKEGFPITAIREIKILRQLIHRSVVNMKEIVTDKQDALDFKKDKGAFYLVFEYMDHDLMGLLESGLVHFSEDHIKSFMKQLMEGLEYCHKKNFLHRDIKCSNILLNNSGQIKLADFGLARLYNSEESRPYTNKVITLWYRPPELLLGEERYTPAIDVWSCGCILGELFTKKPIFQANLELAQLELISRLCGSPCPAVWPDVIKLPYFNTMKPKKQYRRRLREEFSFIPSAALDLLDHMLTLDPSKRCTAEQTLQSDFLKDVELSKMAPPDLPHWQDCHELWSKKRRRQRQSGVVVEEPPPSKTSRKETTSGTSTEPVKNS
T1 sequence (O75909 whole entry partner, the tested form may be a part): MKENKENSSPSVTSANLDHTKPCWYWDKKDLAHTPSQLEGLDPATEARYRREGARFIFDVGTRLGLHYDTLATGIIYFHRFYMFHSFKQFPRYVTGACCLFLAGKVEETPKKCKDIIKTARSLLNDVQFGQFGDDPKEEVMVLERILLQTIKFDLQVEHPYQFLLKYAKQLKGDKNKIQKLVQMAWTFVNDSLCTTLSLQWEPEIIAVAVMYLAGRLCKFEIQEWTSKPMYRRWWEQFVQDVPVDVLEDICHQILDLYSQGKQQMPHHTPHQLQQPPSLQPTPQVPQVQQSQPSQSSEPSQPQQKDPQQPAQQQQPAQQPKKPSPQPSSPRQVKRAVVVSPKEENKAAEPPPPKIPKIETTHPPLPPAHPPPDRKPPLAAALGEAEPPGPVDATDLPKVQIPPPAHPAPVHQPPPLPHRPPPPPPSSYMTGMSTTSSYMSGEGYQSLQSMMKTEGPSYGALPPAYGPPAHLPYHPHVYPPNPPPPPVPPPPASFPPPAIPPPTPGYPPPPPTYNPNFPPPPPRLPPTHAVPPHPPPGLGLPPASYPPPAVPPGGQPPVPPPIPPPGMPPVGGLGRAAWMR
Sequence of CDK9/Cyclin T1 complex (P50750 whole entry): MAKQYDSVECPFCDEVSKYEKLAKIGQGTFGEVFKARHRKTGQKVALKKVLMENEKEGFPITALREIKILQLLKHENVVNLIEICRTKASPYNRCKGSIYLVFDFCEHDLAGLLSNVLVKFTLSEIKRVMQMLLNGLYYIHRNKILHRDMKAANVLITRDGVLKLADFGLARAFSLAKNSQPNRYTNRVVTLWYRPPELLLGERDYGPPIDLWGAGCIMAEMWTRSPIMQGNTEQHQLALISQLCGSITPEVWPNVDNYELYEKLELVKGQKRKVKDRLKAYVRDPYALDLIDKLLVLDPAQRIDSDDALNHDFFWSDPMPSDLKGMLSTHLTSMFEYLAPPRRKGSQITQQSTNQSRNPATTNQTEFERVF
Sequence of CDK9/Cyclin T1 complex (O60563 whole entry partner): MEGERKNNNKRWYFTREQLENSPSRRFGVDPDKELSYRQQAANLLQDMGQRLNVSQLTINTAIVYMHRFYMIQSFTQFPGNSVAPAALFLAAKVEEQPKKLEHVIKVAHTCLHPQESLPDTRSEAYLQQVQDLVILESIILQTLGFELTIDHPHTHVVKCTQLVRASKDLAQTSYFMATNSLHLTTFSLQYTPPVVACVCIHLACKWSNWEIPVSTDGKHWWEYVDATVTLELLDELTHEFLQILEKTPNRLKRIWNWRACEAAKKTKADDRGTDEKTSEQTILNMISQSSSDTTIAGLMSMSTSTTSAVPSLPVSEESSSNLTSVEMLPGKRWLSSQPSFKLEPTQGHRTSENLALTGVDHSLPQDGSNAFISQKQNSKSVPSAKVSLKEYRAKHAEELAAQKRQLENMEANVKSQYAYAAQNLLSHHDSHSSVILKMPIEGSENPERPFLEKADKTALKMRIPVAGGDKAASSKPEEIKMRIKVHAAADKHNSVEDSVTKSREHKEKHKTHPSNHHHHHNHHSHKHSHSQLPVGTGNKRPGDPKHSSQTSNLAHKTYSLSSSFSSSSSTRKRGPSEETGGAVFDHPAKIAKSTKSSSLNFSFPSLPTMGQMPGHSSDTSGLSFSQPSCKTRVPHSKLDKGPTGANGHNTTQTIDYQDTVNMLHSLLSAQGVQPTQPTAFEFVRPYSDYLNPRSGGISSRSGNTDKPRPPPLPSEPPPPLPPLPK
Sequence of CDK7/Cyclin H/MAT1 complex (P50613 whole entry): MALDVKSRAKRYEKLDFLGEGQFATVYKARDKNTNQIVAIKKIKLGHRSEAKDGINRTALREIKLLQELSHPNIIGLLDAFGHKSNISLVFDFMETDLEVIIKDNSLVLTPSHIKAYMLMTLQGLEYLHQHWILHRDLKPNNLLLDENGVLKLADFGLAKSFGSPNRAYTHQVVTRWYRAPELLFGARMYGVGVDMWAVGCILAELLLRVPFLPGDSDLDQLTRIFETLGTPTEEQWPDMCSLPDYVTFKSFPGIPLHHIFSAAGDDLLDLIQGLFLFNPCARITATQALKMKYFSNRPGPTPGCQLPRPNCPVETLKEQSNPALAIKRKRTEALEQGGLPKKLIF
Sequence of CDK7/Cyclin H/MAT1 complex (P51946 whole entry partner): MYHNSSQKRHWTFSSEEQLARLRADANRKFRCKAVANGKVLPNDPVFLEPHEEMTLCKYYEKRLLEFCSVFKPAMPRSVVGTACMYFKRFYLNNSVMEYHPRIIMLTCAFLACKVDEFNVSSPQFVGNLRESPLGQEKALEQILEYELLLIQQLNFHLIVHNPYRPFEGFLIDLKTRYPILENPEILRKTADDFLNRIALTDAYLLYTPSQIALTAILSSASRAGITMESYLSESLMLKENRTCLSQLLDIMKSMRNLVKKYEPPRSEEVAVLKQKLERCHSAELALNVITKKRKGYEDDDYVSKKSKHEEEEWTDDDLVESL
Sequence of CDK7/Cyclin H/MAT1 complex (P51948 whole entry partner): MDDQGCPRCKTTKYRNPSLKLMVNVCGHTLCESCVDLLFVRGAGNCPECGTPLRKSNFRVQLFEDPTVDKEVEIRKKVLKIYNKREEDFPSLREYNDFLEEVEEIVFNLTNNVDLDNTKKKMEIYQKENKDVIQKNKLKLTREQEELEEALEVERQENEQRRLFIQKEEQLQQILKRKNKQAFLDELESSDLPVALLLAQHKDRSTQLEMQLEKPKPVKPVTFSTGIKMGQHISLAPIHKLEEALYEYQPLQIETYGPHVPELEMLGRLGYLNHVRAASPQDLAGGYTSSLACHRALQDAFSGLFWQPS

SMILES	IC50 (CDK2/Cyclin E1 complex) [nM]	IC50 [1] [nM]	IC50 (CDK9/Cyclin T1 complex) [nM]	IC50 [2] [nM]	IC50 (A673 cells) [nM]
O=S1(=O)CCN(c2cccc3c(-c4nc(NC5CCCNC5)ncc4Cl)c[nH]c23)CC1 (stereo not drawn) [Compound 196]	200 to 5000	< 20	200 to 5000	200 to 5000	20 to 200
N#Cc1cc2[nH]cc(-c3nc(NC4CCCNC4)ncc3C(F)(F)F)c2cc1F (stereo not drawn) [Compound 197]	200 to 5000	< 20	200 to 5000	200 to 5000	< 20
OC1CC=C(c2cccc3c(-c4nc(NC5CCCNC5)ncc4C(F)(F)F)c[nH]c23)CC1 (stereo not drawn) [Compound 198]	200 to 5000	< 20	200 to 5000	200 to 5000	< 20
CNS(=O)(=O)c1ccc2c(-c3nc(N[C@H]4CCCNC4)ncc3C(F)(F)F)c[nH]c2c1 [Compound 200]	200 to 5000	< 20	200 to 5000	200 to 5000	20 to 200
CC1CNCC(Nc2ncc(Cl)c(-c3c[nH]c4ccccc34)n2)C1 (stereo not drawn) [Compound 201]	200 to 5000	< 20	200 to 5000	20 to 200	< 20
FC(F)(F)c1cnc(NC2CCCNC2)nc1-c1c[nH]c2cc(-c3ncc[nH]3)ccc12 (stereo not drawn) [Compound 202]	200 to 5000	< 20	200 to 5000	≥ 5000	20 to 200
OC1CNCC(Nc2ncc(C(F)(F)F)c(-c3c[nH]c4ccccc34)n2)C1 (stereo not drawn) [Compound 203]	200 to 5000	< 20	200 to 5000	200 to 5000	< 20
O=C(c1ccc2c(-c3nc(NC4CCCNC4)ncc3C(F)(F)F)c[nH]c2c1)N1CCC(O)C1 (stereo not drawn) [Compound 204]	≥ 5000	< 20	≥ 5000	200 to 5000	200 to 5000
O=C(c1ccc2c(-c3nc(N[C@H]4CCCNC4)ncc3C(F)(F)F)c[nH]c2c1)N1CC[C@@H](O)C1 [Compound 205]	≥ 5000	< 20	≥ 5000	200 to 5000	200 to 5000
FCCc1cnc(NC2CCCNC2)nc1-c1c[nH]c2ccccc12 (stereo not drawn) [Compound 206]	≥ 5000	20 to 200	200 to 5000	200 to 5000	200 to 5000
OC1CCC(c2cccc3c(-c4nc(NC5CCCNC5)ncc4C(F)(F)F)c[nH]c23)CC1 (stereo not drawn) [Compound 207]	200 to 5000	< 20	200 to 5000	200 to 5000	< 20
CC(=O)c1cnc(NC2CCCNC2)nc1-c1c[nH]c2ccccc12 (stereo not drawn) [Compound 208]	≥ 5000	20 to 200	≥ 5000	200 to 5000	20 to 200
CC1(C)CCNC[C@@H]1Nc1ncc(C(F)(F)F)c(-c2c[nH]c3ccccc23)n1 [Compound 209]	≥ 5000	200 to 5000	≥ 5000	≥ 5000	20 to 200
CC1(C)CCNC[C@H]1Nc1ncc(C(F)(F)F)c(-c2c[nH]c3ccccc23)n1 [Compound 210]	≥ 5000	200 to 5000	≥ 5000	≥ 5000	200 to 5000
CCC1CCC(Nc2ncc(C(F)(F)F)c(-c3c[nH]c4ccccc34)n2)CN1 (stereo not drawn) [Compound 211]	200 to 5000	20 to 200	200 to 5000	200 to 5000	20 to 200
FC(F)(F)c1cnc(NC2CCC3(CC3)NC2)nc1-c1c[nH]c2ccccc12 (stereo not drawn) [Compound 212]	200 to 5000	< 20	200 to 5000	200 to 5000	< 20
FC(F)(F)c1cnc(NC2CCCNC2)nc1-c1c[nH]c2cc(N3CCCC3)ccc12 (stereo not drawn) [Compound 213]	≥ 5000	20 to 200	≥ 5000	200 to 5000	20 to 200
CC(C)(O)Cn1cc(-c2ccc3c(-c4nc(N[C@H]5CCCNC5)ncc4C(F)(F)F)c[nH]c3c2)cn1 [Compound 214]	200 to 5000	20 to 200	200 to 5000	200 to 5000	20 to 200
FC(F)(F)c1cnc(N[C@@H]2CNCc3ccccc32)nc1-c1c[nH]c2ccccc12 [Compound 215]	≥ 5000	20 to 200	≥ 5000	≥ 5000	200 to 5000
FC(F)(F)c1cnc(NC2CNCc3ccccc32)nc1-c1c[nH]c2ccccc12 (stereo not drawn) [Compound 216]	200 to 5000	200 to 5000	≥ 5000	≥ 5000	200 to 5000
CCC1CCC(Nc2ncc(C(F)(F)F)c(-c3c[nH]c4ccccc34)n2)CN1 (stereo not drawn) [Compound 217]	200 to 5000	< 20	200 to 5000	200 to 5000	20 to 200
C=Cc1cnc(NC2CCCNC2)nc1-c1c[nH]c2ccccc12 (stereo not drawn) [Compound 218]	200 to 5000	< 20	200 to 5000	200 to 5000	20 to 200
CS(=O)(=O)Cc1ccc2c(-c3nc(NC4CCCNC4)ncc3C(F)(F)F)c[nH]c2c1 (stereo not drawn) [Compound 219]	200 to 5000	< 20	200 to 5000	200 to 5000	20 to 200
FC(F)(F)c1cnc(NC2CCCNC2)nc1-c1c[nH]c2cc(-c3cccnc3)ccc12 (stereo not drawn) [Compound 223]	200 to 5000	< 20	200 to 5000	200 to 5000	20 to 200
FC(F)(F)c1cnc(N[C@H]2CCCNC2)nc1-c1c[nH]c2cc(-c3ccncc3)ccc12 [Compound 224]	200 to 5000	< 20	200 to 5000	200 to 5000	20 to 200
Cn1cc(-c2ccc3c(-c4nc(NC5CCCNC5)ncc4C(F)(F)F)c[nH]c3c2)cc1C#N (stereo not drawn) [Compound 225]	200 to 5000	< 20	200 to 5000	200 to 5000	20 to 200
Cc1nn(C)cc1-c1ccc2c(-c3nc(N[C@H]4CCCNC4)ncc3C(F)(F)F)c[nH]c2c1 [Compound 226]	200 to 5000	< 20	200 to 5000	200 to 5000	< 20
Cc1c(-c2ccc3c(-c4nc(NC5CCCNC5)ncc4C(F)(F)F)c[nH]c3c2)cnn1C (stereo not drawn) [Compound 227]	200 to 5000	< 20	200 to 5000	200 to 5000	20 to 200
O=C(C1CCC(Nc2ncc(C(F)(F)F)c(-c3c[nH]c4ccccc34)n2)CN1)N1CCCC1 (stereo not drawn) [Compound 228]	200 to 5000	< 20	200 to 5000	200 to 5000	20 to 200
Cc1n[nH]cc1-c1ccc2[nH]cc(-c3nc(NC4CCCNC4)ncc3C(F)(F)F)c2c1 (stereo not drawn) [Compound 229]	200 to 5000	< 20	200 to 5000	200 to 5000	< 20
